The source of these data is patent US20250368633A1, “AZEPINE FUSED RING COMPOUND AS RIPK1 INHIBITOR AND USE THEREOF” (ARTIVILA BIOPHARMA, priority 2022, published 2025).

By inhibition is commonly meant how much of the control response was suppressed.

Test [1] deals with T1, RIPK1 kinase (Homo sapiens, UniProt Q13546).
T1 construct: purchased Promega VA7593
T1 sequence (Q13546 1-671): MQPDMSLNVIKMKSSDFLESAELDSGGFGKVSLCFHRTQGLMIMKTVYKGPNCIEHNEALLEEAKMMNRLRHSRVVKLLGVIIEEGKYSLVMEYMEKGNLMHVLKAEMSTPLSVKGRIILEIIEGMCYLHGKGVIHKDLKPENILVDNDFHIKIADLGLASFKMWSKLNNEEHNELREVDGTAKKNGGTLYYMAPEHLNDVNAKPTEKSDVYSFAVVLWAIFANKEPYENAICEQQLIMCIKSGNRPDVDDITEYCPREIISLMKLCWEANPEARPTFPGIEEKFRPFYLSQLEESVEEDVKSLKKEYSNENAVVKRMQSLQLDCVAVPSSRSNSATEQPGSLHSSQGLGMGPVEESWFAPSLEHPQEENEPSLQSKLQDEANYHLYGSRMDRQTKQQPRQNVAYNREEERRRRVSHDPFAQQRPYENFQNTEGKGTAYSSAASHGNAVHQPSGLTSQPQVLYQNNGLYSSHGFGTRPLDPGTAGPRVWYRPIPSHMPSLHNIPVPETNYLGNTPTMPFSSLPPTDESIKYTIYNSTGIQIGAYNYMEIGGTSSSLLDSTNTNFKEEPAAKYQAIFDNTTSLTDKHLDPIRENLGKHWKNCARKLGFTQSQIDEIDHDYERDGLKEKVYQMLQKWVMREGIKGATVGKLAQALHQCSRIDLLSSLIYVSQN
Description: In vitro RIPK1 kinase activity assay (ADP-Glo), inhibition by compounds at 1 μM. It is filed as biochemical. The following applies: compound 1 μM; ATP 10 μM; MBP substrate 100 μg/mL; read-out: RIPK1 kinase activity inhibition rate range. The procedure, abridged: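 Compound and RIPK1 were preincubated 15 min at room temperature, then reacted 1 h with 10 μM ATP and 100 μg/mL MBP substrate in kinase buffer D. ADP formed was measured by ADP-Glo luminescence and converted to percent inhibition of kinase activity.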

The subject of test [2] is U937 cells. In words: Inhibition rate of compound (1 μM) on necroptosis of U937 cells (TSZ-induced, CellTiter-Glo). It is filed as cell-based. The settings on record: TSZ (hTNF-α, SM-164, Z-VAD-FMK) 20 hours. Summed up:
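U937 cells were pretreated 15 min with compound, then necroptosis was triggered with TSZ (Z-VAD-FMK, hTNF-α, SM-164) for 20 h at 37° C. Viability was read as ATP by CellTiter-Glo luminescence, and inhibition (%) was taken relative to no-TSZ and TSZ-only wells.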
(Cellular ATP, detected with luciferase, serves as a proxy for viable cell number.)

For `COC(=O)C1(C#Cc2ccc3c(c2)N(C)C(=O)[C@@H](NC(=O)C(=O)NCCc2ccccc2)CO3)CC1` [Example 96, methyl (S)-1-((5-methyl-4-oxo-3-(2-oxo-2-(phenethylamino)acetamido)-2,3,4,5-tetrahydrobenzo[b][1,4]oxazepin-7-yl)ethynyl)cyclopropane-1-carboxylate], the inhibition at 1 µM in test [1] was no less than 75%. Moreover, the “Inhibition rate range of compounds (1 μM) on U937 cell necroptosis” value (“Inhibition rate range of compounds” for short) in test [2] is on record as “B (B: 50-89%)”.

On to `CN1C(=O)[C@@H](NC(=O)C(=O)NCCc2cccs2)COc2ccccc21` [Example 97, (S)—N^1-(5-methyl-4-oxo-2,3,4,5-tetrahydrobenzo[b][1,4]oxazepin-3-yl)-N^2-(2-(thiophen-2-yl)ethyl)oxalamide], for which, in test [1], the inhibition at 1 µM was no less than 75%. Besides, the “Inhibition rate range of compounds” value in test [2] is reported as “A (A: ≥90%)”.

For `CN1C(=O)[C@@H](NC(=O)C(=O)NCCc2ccsc2)COc2ccccc21` [Example 98, (S)—N-(5-methyl-4-oxo-2,3,4,5-tetrahydrobenzo[b][1,4]oxazepin-3-yl)-N^2-(2-(thiophen-3-yl)ethyl)oxalamide], in test [1], the inhibition at 1 µM is no less than 75%. For the same compound, the “Inhibition rate range of compounds” value in test [2] was “A (A: ≥90%)”.
